How the values were obtained:
Paclitaxel = compound: CC(=O)O[C@H]1C(=O)[C@@]2(C)[C@H]([C@H](OC(=O)c3ccccc3)[C@]3(O)C[C@H](OC(=O)[C@H](O)[C@@H](NC(=O)c4ccccc4)c4ccccc4)C(C)=C1C3(C)C)[C@]1(OC(C)=O)CO[C@@H]1C[C@@H]2O [Paclitaxel]
[1] = compound: CCC1=CN=CN=C1N2CCN(CC2)CC3=NC4=C(N3)C=C(C=C4)C(F)(F)F
Neratinib/HKI272 = compound: CCOc1cc2ncc(C#N)c(Nc3ccc(OCc4ccccn4)c(Cl)c3)c2cc1NC(=O)/C=C/CN(C)C [Neratinib/HKI272]
[2] = compound: CCN1CCN(Cc2ccc(Nc3ncc(F)c(-c4cc(F)c5nc(C)n(C(C)C)c5c4)n3)nc2)CC1; assay: GR value, 72 h; higher = faster growth (1 = untreated, <0 = killing);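 also: breast cancer and non-malignant breast epithelial lines, nine half-log doses, viable cells counted by Hoechst and LIVE/DEAD dye imaging versus time-zero plates and DMSO controls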
[3] = compound: CCc1cnn2c(NCc3ccc[n+]([O-])c3)cc(N3CCCC[C@H]3CCO)nc12; assay: as above
R0-3306 = compound: C1=CC2=C(C=CC(=C2)C=C3C(=O)NC(=NCC4=CC=CS4)S3)N=C1 [R0-3306]
BSJ-03-123 [4] = compound: T1, CC(=O)c1c(C)c2cnc(Nc3ccc(N4CCN(CCOCCOCCOCCNC(=O)COc5cccc6c5C(=O)N(C5CCC(=O)NC5=O)C6=O)CC4)cn3)nc2n(C2CCCC2)c1=O [BSJ-03-123]
BVD523 = compound: CC(C)Nc1cc(-c2c[nH]c(C(=O)N[C@H](CO)c3cccc(Cl)c3)c2)c(Cl)cn1 [BVD523]
Flavopiridol [5] = compound: T2, CN1CC[C@H](c2c(O)cc(O)c3c(=O)cc(-c4ccccc4Cl)oc23)[C@H](O)C1 [Flavopiridol]
AZD5363 = compound: NC1(C(=O)N[C@@H](CCO)c2ccc(Cl)cc2)CCN(c2nc[nH]c3nccc2-3)CC1 [AZD5363]
YKL-5-124 = compound: C=CC(=O)Nc1ccc(C(=O)Nc2[nH]nc3c2CN(C(=O)N[C@H](CN(C)C)c2ccccc2)C3(C)C)cc1 [YKL-5-124]; assay: GR value, 72 h; higher = faster growth (1 = untreated, <0 = killing);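 also: breast cancer and non-malignant breast epithelial lines, nine half-log doses, viable cells counted by Hoechst and LIVE/DEAD dye imaging versus time-zero plates and DMSO controls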
BSJ-03-123 [6] = compound: T1, BSJ-03-123; assay: as above
LEE011/Ribociclib = compound: CN(C)C(=O)c1cc2cnc(Nc3ccc(N4CCNCC4)cn3)nc2n1C1CCCC1 [LEE011/Ribociclib]; assay: as above
THZ531 = compound: CN(C)C/C=C/C(=O)Nc1ccc(C(=O)N2CCC[C@@H](Nc3ncc(Cl)c(-c4c[nH]c5ccccc45)n3)C2)cc1 [THZ531]; assay: as above
THZ1 = compound: CN(C)C/C=C/C(=O)Nc1ccc(C(=O)Nc2cccc(Nc3ncc(Cl)c(-c4c[nH]c5ccccc45)n3)c2)cc1 [THZ1]; assay: as above
Flavopiridol [7] = compound: T2, Flavopiridol; assay: as above
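For GR50, 72 h in this document: breast cancer and non-malignant breast epithelial cell lines, Deep Dye Drop or Dye Drop imaging, nine half-log doses, GR normalized to time-zero plates and DMSO-only controls.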

HCC1428
GR50, 72 h (Paclitaxel): 0.00862 µM | GR50, 72 h [1]: > 10 µM | GR50, 72 h (Neratinib/HKI272): 1.43 µM | GR value ([2]; 0.001 µM): 0.945 GR | GR value ([2]; 0.003162 µM): 0.654 GR | GR value ([2]; 0.01 µM): 0.515 GR | GR value ([2]; 0.03162 µM): 0.31 GR | GR value ([2]; 0.1 µM): 0.228 GR | GR value ([2]; 0.3162 µM): 0.25 GR | GR value ([2]; 1 µM): 0.234 GR | GR value ([2]; 3.162 µM): 0.181 GR | GR value ([2]; 10 µM): 0.0475 GR | GR value ([3]; 0.0001 µM): 1.11 GR | GR value ([3]; 0.0003162 µM): 1.09 GR | GR value ([3]; 0.001 µM): 0.975 GR | GR value ([3]; 0.003162 µM): 0.984 GR | GR value ([3]; 0.01 µM): 0.871 GR | GR value ([3]; 0.03162 µM): -0.205 GR | GR value ([3]; 0.1 µM): -0.538 GR | GR value ([3]; 0.3162 µM): -0.619 GR | GR value ([3]; 1 µM): -0.67 GR

MDAMB157
GR50, 72 h (Paclitaxel): 0.00205 µM | GR50, 72 h [1]: 3.78 µM | GR50, 72 h (Neratinib/HKI272): 0.796 µM | GR value ([2]; 0.001 µM): 1.01 GR | GR value ([2]; 0.003162 µM): 1.08 GR | GR value ([2]; 0.01 µM): 0.993 GR | GR value ([2]; 0.03162 µM): 0.928 GR | GR value ([2]; 0.1 µM): 0.913 GR | GR value ([2]; 0.3162 µM): 0.727 GR | GR value ([2]; 1 µM): 0.578 GR | GR value ([2]; 3.162 µM): 0.441 GR | GR value ([2]; 10 µM): -0.587 GR | GR value ([3]; 0.0001 µM): 1.07 GR | GR value ([3]; 0.0003162 µM): 1.05 GR | GR value ([3]; 0.001 µM): 1.06 GR | GR value ([3]; 0.003162 µM): 0.982 GR | GR value ([3]; 0.01 µM): 0.929 GR | GR value ([3]; 0.03162 µM): -0.488 GR | GR value ([3]; 0.1 µM): -0.86 GR | GR value ([3]; 0.3162 µM): -0.899 GR | GR value ([3]; 1 µM): -0.915 GR

HCC1569
GR50, 72 h (R0-3306): 4.54 µM | GR50, 72 h (Paclitaxel): 0.00208 µM | GR50, 72 h (BSJ-03-123 [4]): 2.86 µM | GR50, 72 h (BVD523): > 10 µM | GR50, 72 h [1]: > 10 µM | GR50, 72 h (Neratinib/HKI272): 0.0891 µM | GR50, 72 h (Flavopiridol [5]): 0.11 µM | GR50, 72 h (AZD5363): 0.358 µM | GR value (YKL-5-124; 0.001 µM): 0.373 GR | GR value (YKL-5-124; 0.003162 µM): 0.541 GR | GR value (YKL-5-124; 0.01 µM): 0.302 GR | GR value (YKL-5-124; 0.03162 µM): 0.277 GR | GR value (YKL-5-124; 0.1 µM): 0.443 GR | GR value (YKL-5-124; 0.3162 µM): 0.124 GR | GR value (YKL-5-124; 1 µM): 0.175 GR | GR value (YKL-5-124; 3.162 µM): 0.0783 GR | GR value (YKL-5-124; 10 µM): -0.266 GR | GR value (BSJ-03-123 [6]; 0.001 µM): 1.01 GR | GR value (BSJ-03-123 [6]; 0.003162 µM): 0.944 GR | GR value (BSJ-03-123 [6]; 0.01 µM): 1.04 GR | GR value (BSJ-03-123 [6]; 0.03162 µM): 0.922 GR | GR value (BSJ-03-123 [6]; 0.1 µM): 1.08 GR | GR value (BSJ-03-123 [6]; 0.3162 µM): 0.841 GR | GR value (BSJ-03-123 [6]; 1 µM): 0.5 GR | GR value (BSJ-03-123 [6]; 3.162 µM): 0.693 GR | GR value (BSJ-03-123 [6]; 10 µM): -0.102 GR | GR value ([2]; 0.001 µM): 0.941 GR | GR value ([2]; 0.003162 µM): 0.932 GR | GR value ([2]; 0.01 µM): 0.955 GR | GR value ([2]; 0.03162 µM): 1.05 GR | GR value ([2]; 0.1 µM): 0.985 GR | GR value ([2]; 0.3162 µM): 1.07 GR | GR value ([2]; 1 µM): 0.822 GR | GR value ([2]; 3.162 µM): 0.639 GR | GR value ([2]; 10 µM): 0.0637 GR | GR value ([3]; 0.0001 µM): 1.03 GR | GR value ([3]; 0.0003162 µM): 0.932 GR | GR value ([3]; 0.001 µM): 1.06 GR | GR value ([3]; 0.003162 µM): 0.984 GR | GR value ([3]; 0.01 µM): 0.928 GR | GR value ([3]; 0.03162 µM): -0.0195 GR | GR value ([3]; 0.1 µM): -0.224 GR | GR value ([3]; 0.3162 µM): -0.229 GR | GR value ([3]; 1 µM): -0.251 GR | GR value (LEE011/Ribociclib; 0.001 µM): 1.04 GR | GR value (LEE011/Ribociclib; 0.003162 µM): 1.1 GR | GR value (LEE011/Ribociclib; 0.01 µM): 1.07 GR | GR value (LEE011/Ribociclib; 0.03162 µM): 0.978 GR | GR value (LEE011/Ribociclib; 0.1 µM): 1.09 GR | GR value (LEE011/Ribociclib; 0.3162 µM): 0.913 GR | GR value (LEE011/Ribociclib; 1 µM): 1.26 GR | GR value (LEE011/Ribociclib; 3.162 µM): 1.32 GR | GR value (LEE011/Ribociclib; 10 µM): 0.86 GR | GR value (THZ531; 0.0001 µM): 1.2 GR | GR value (THZ531; 0.0003162 µM): 1.02 GR | GR value (THZ531; 0.001 µM): 1.03 GR | GR value (THZ531; 0.003162 µM): 1.15 GR | GR value (THZ531; 0.01 µM): 1.09 GR | GR value (THZ531; 0.03162 µM): 0.907 GR | GR value (THZ531; 0.1 µM): -0.21 GR | GR value (THZ531; 0.3162 µM): -0.155 GR | GR value (THZ531; 1 µM): 0.0205 GR | GR value (THZ1; 0.0001 µM): 1.16 GR | GR value (THZ1; 0.0003162 µM): 1.14 GR | GR value (THZ1; 0.001 µM): 1.15 GR | GR value (THZ1; 0.003162 µM): 1.42 GR | GR value (THZ1; 0.01 µM): 0.908 GR | GR value (THZ1; 0.03162 µM): 0.468 GR | GR value (THZ1; 0.1 µM): -0.112 GR | GR value (THZ1; 0.3162 µM): -0.346 GR | GR value (THZ1; 1 µM): -0.325 GR | GR value (Flavopiridol [7]; 0.0001 µM): 1.24 GR | GR value (Flavopiridol [7]; 0.0003162 µM): 1.13 GR | GR value (Flavopiridol [7]; 0.001 µM): 0.828 GR | GR value (Flavopiridol [7]; 0.003162 µM): 1.19 GR | GR value (Flavopiridol [7]; 0.01 µM): 1.02 GR | GR value (Flavopiridol [7]; 0.03162 µM): 0.846 GR | GR value (Flavopiridol [7]; 0.1 µM): 0.422 GR | GR value (Flavopiridol [7]; 0.3162 µM): 0.0517 GR | GR value (Flavopiridol [7]; 1 µM): -0.284 GR

— the supplement of paper PMC9663587
